Results: PubChem BioAssay AID248 (DTP/NCI, 2004)
“And” between values parts separate entries of the source, which are not always exact repeats. Equal entries are not always repeated. Inconclusive results and toxic doses are left out.

Test system: L1210 leukemia ip in BDF1 mice, survival T/C
Test: NCI In Vivo Anticancer Drug Screen. Data for tumor model L1210 Leukemia (intraperitoneal) in B6D2F1 (BDF1) mice
Conditions: endpoint: mean survival time, higher = longer survival
Method in brief: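 Tumor was transplanted into mice, which were then dosed with test compound or vehicle alone. Survival was recorded for each group, and the treated figure was expressed relative to the control figure.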

[1] = dose: 3.0 mg/kg/injection, schedule: Q04DX003 (ip), vehicle: saline
[2] = dose: 6.0 mg/kg/injection, schedule: Q04DX003 (ip), vehicle: saline
[3] = dose: 100.0 mg/kg/injection, schedule: Q04DX003 (ip), vehicle: Klucel (hydroxypropylcellulose) (HPC)
[4] = dose: 200.0 mg/kg/injection, schedule: Q04DX003 (ip), vehicle: saline
[5] = dose: 400.0 mg/kg/injection, schedule: Q04DX003 (ip), vehicle: Klucel (hydroxypropylcellulose) (HPC)
[6] = dose: 100.0 mg/kg/injection, schedule: Q01DX009 (ip), vehicle: Klucel (hydroxypropylcellulose) (HPC)
[7] = dose: 200.0 mg/kg/injection, schedule: Q01DX009 (ip), vehicle: Klucel (hydroxypropylcellulose) (HPC)

In the case of `c1nc(SSc2ncnc3nc[nH]c23)c2[nH]cnc2n1`, the T/C (dose: 0.1 mg/kg/injection, schedule: Q04DX003 (ip), vehicle: saline) is reported as 97 % of control, the T/C (dose: 0.12 mg/kg/injection, schedule: Q04DX003 (ip), vehicle: saline) is reported as 119 % of control and the T/C (dose: 0.2 mg/kg/injection, schedule: Q04DX003 (ip), vehicle: saline) is reported as 119 % of control. For the same compound, the T/C (dose: 0.25 mg/kg/injection, schedule: Q04DX003 (ip), vehicle: saline) was 117 % of control, the T/C (dose: 0.35 mg/kg/injection, schedule: Q01DX009 (ip), vehicle: saline) was 100 % of control and the T/C (dose: 0.5 mg/kg/injection, schedule: Q04DX003 (ip), vehicle: saline) was 120 % of control. For the same compound, the T/C (dose: 0.8 mg/kg/injection, schedule: Q01DX009 (ip), vehicle: saline) was 152 % of control, the T/C (dose: 0.8 mg/kg/injection, schedule: Q04DX003 (ip), vehicle: saline with Tween-80) was 98 % of control and the T/C (dose: 1.6 mg/kg/injection, schedule: Q04DX003 (ip), vehicle: saline with Tween-80) was 106 % of control. The T/C [1] was 239 % of control, the T/C (dose: 3.08 mg/kg/injection, schedule: Q01DX001 (ip), vehicle: saline with Tween-80) was 121 % of control and the T/C (dose: 3.25 mg/kg/injection, schedule: Q04DX003 (ip), vehicle: saline with Tween-80) was 113 % of control. For the same compound, the T/C (dose: 5.5 mg/kg/injection, schedule: Q04DX003 (ip), vehicle: Klucel (hydroxypropylcellulose) (HPC)) was 121 % of control, the T/C [2] was 112 % of control and the T/C (dose: 7.5 mg/kg/injection, schedule: Q04DX003 (ip), vehicle: saline) was 189 % of control. For the same compound, the T/C (dose: 10.0 mg/kg/injection, schedule: Q01DX001 (ip), vehicle: saline) was 118 % of control, the T/C (dose: 10.0 mg/kg/injection, schedule: Q01DX009 (ip), vehicle: saline) was 169 % of control and the T/C (dose: 12.0 mg/kg/injection, schedule: Q01DX001 (ip), vehicle: saline) was 103 % of control. For the same compound, the T/C (dose: 12.0 mg/kg/injection, schedule: Q04DX003 (ip), vehicle: saline) was 154 % of control, the T/C (dose: 15.0 mg/kg/injection, schedule: Q01DX009 (ip), vehicle: saline) was 154 % of control and the T/C (dose: 15.0 mg/kg/injection, schedule: Q04DX003 (ip), vehicle: saline) was 159 % of control. The T/C (dose: 25.0 mg/kg/injection, schedule: Q04DX003 (ip), vehicle: saline) was 151 % of control, the T/C (dose: 26.0 mg/kg/injection, schedule: Q04DX003 (ip), vehicle: saline with Tween-80) was 157 % of control and the T/C (dose: 29.7 mg/kg/injection, schedule: Q04DX003 (ip), vehicle: saline) was 106 % of control. The T/C (dose: 30.0 mg/kg/injection, schedule: Q04DX003 (ip), vehicle: saline) was 90 % of control, the T/C (dose: 33.0 mg/kg/injection, schedule: Q04DX003 (ip), vehicle: Klucel (hydroxypropylcellulose) (HPC)) was 120 % of control and the T/C (dose: 35.0 mg/kg/injection, schedule: Q01DX009 (ip), vehicle: saline with Tween-80) was 163 % of control. The T/C (dose: 35.0 mg/kg/injection, schedule: Q04DX003 (ip), vehicle: Klucel (hydroxypropylcellulose) (HPC)) was 198 % of control, the T/C (dose: 39.0 mg/kg/injection, schedule: Q04DX003 (ip), vehicle: saline with Tween-80) was 172 % of control and the T/C (dose: 44.0 mg/kg/injection, schedule: Q01DX009 (ip), vehicle: saline) was 100 % of control. The T/C (dose: 44.0 mg/kg/injection, schedule: Q04DX003 (ip), vehicle: saline) was 202 % of control, the T/C (dose: 50.0 mg/kg/injection, schedule: Q01DX009 (ip), vehicle: saline) was 106 % of control and the T/C (dose: 50.0 mg/kg/injection, schedule: Q04DX003 (ip), vehicle: Klucel (hydroxypropylcellulose) (HPC)) was 152 % of control and 209 % of control. For the same compound, the T/C (dose: 50.0 mg/kg/injection, schedule: Q04DX003 (ip), vehicle: saline) was 123 % of control and 203 % of control, the T/C (dose: 52.0 mg/kg/injection, schedule: Q04DX003 (ip), vehicle: saline with Tween-80) was 168 % of control and the T/C (dose: 63.0 mg/kg/injection, schedule: Q01DX Z (ip), vehicle: saline) was 95 % of control. For the same compound, the T/C (dose: 66.0 mg/kg/injection, schedule: Q01DX001 (ip), vehicle: saline) was 157 % of control, the T/C (dose: 66.0 mg/kg/injection, schedule: Q04DX003 (ip), vehicle: saline) was 216 % of control and the T/C (dose: 67.5 mg/kg/injection, schedule: Q04DX003 (ip), vehicle: saline) was 106 % of control. The T/C (dose: 70.0 mg/kg/injection, schedule: Q01DX009 (ip), vehicle: saline with Tween-80) was 93 % of control, the T/C (dose: 70.0 mg/kg/injection, schedule: Q04DX003 (ip), vehicle: saline) was 178 % of control and the T/C (dose: 100.0 mg/kg/injection, schedule: Q01DX001 (ip), vehicle: saline) was 155 % of control. The T/C [3] was 124 % of control, the T/C (dose: 140.0 mg/kg/injection, schedule: Q04DX003 (ip), vehicle: saline) was 103 % of control and the T/C [4] was 89 % of control.
In the case of `CC(C)c1cccc(OS(=O)(=O)c2ccccc2[N+](=O)[O-])c1`, the T/C (dose: 25.0 mg/kg/injection, schedule: Q01DX009 (ip), vehicle: saline with Tween-80) is reported as 105 % of control, the T/C (dose: 50.0 mg/kg/injection, schedule: Q01DX009 (ip), vehicle: saline with Tween-80) is reported as 105 % of control and the T/C (dose: 100.0 mg/kg/injection, schedule: Q01DX009 (ip), vehicle: saline with Tween-80) is reported as 105 % of control. The T/C [3] was 93 % of control and the T/C [5] was 96 % of control.
For `O=[P+](O)c1ccccc1`, the T/C (dose: 100.0 mg/kg/injection, schedule: Q01DX009 (ip), vehicle: saline) was 94 % of control, the T/C (dose: 100.0 mg/kg/injection, schedule: Q04DX003 (ip), vehicle: saline) was 103 % of control and the T/C (dose: 200.0 mg/kg/injection, schedule: Q01DX009 (ip), vehicle: saline) was 100 % of control. For the same compound, the T/C [4] was 98 % of control, the T/C (dose: 400.0 mg/kg/injection, schedule: Q01DX009 (ip), vehicle: saline) was 100 % of control and the T/C (dose: 400.0 mg/kg/injection, schedule: Q04DX003 (ip), vehicle: saline) was 101 % of control.
For `C[N+](C)(C)CCOC(=O)Nc1ccc(C(c2ccc(NC(=O)OCC[N+](C)(C)C)cc2)c2ccc(NC(=O)OCC[N+](C)(C)C)cc2)cc1`, the T/C (dose: 0.25 mg/kg/injection, schedule: Q01DX009 (ip), vehicle: saline with Tween-80) was 98 % of control and the T/C (dose: 0.5 mg/kg/injection, schedule: Q01DX009 (ip), vehicle: saline with Tween-80) was 100 % of control.
In the case of `CC(=O)Nc1cc(Cl)c(Cl)c([N+](=O)[O-])c1`, the T/C [6] is reported as 100 % of control and the T/C [7] is reported as 97 % of control.
For `CC1CN(Cc2ccccc2)CC(C)N1C(=O)c1ccccc1` (configuration not stated), the T/C (dose: 100.0 mg/kg/injection, schedule: Q01DX009 (ip), vehicle: water) was 95 % of control, the T/C (dose: 100.0 mg/kg/injection, schedule: Q04DX003 (ip), vehicle: water) was 109 % of control and the T/C (dose: 200.0 mg/kg/injection, schedule: Q01DX009 (ip), vehicle: water) was 93 % of control. For the same compound, the T/C (dose: 200.0 mg/kg/injection, schedule: Q04DX003 (ip), vehicle: water) was 113 % of control, the T/C (dose: 400.0 mg/kg/injection, schedule: Q01DX009 (ip), vehicle: water) was 104 % of control and the T/C (dose: 400.0 mg/kg/injection, schedule: Q04DX003 (ip), vehicle: water) was 110 % of control.
`CC12c3ccccc3C(c3c1ccc1ccccc31)C1C(=O)OC(=O)C12` (configuration not stated) was tested, and the T/C [3] was 96 % of control, the T/C (dose: 200.0 mg/kg/injection, schedule: Q04DX003 (ip), vehicle: Klucel (hydroxypropylcellulose) (HPC)) was 104 % of control and the T/C [5] was 98 % of control.
With `O=P(NC12CC3CC(CC(C3)C1)C2)(NC12CC3CC(CC(C3)C1)C2)N(CCCl)CCCl` the T/C (dose: 50.0 mg/kg/injection, schedule: Q01DX009 (ip), vehicle: Klucel (hydroxypropylcellulose) (HPC)) was 112 % of control, the T/C (dose: 100.0 mg/kg/injection, schedule: Q01DX001 (ip), vehicle: Klucel (hydroxypropylcellulose) (HPC)) was 105 % of control and the T/C [6] was 104 % of control. The T/C (dose: 200.0 mg/kg/injection, schedule: Q01DX001 (ip), vehicle: Klucel (hydroxypropylcellulose) (HPC)) was 94 % of control, the T/C [7] was 89 % of control and the T/C (dose: 400.0 mg/kg/injection, schedule: Q01DX001 (ip), vehicle: Klucel (hydroxypropylcellulose) (HPC)) was 98 % of control.
For `Cc1cc(C[P+](c2ccccc2)(c2ccccc2)c2ccccc2)c(C[P+](c2ccccc2)(c2ccccc2)c2ccccc2)cc1C`, the T/C (dose: 1.5 mg/kg/injection, schedule: Q04DX003 (ip), vehicle: saline) was 104 % of control, the T/C (dose: 3.0 mg/kg/injection, schedule: Q01DX009 (ip), vehicle: saline) was 97 % of control and the T/C [1] was 106 % of control. The T/C (dose: 6.0 mg/kg/injection, schedule: Q01DX009 (ip), vehicle: saline) was 94 % of control and the T/C [2] was 98 % of control.
For `Nc1ncnc2nccnc12`, the T/C (dose: 25.0 mg/kg/injection, schedule: Q01DX Z (ip), vehicle: saline) was 103 % of control and the T/C (dose: 75.0 mg/kg/injection, schedule: Q01DX Z (ip), vehicle: saline) was 89 % of control.
